Results from patent US12730111B2, “Systems, methods, and compositions to identify new protein targets of a chemical compound or its derivatives” (priority 2019, dated 2026).

Legend:
[1] = test system: protein asymmetric dimethylarginine (ADMA) in HeLa cells; assay: Protein ADMA levels in cultured HeLa cells (immunoblot); assay type: cell-based; conditions: for levels of protein ADMA in cell culture: 50 μM, short-term treatment
Experimental: Each group contained the same volume of DMSO and ethanol. After wash with TBS for three times, the cells were lysed with 900 μL RIPA lysis buffer and centrifuged to pellet down the debris. The supernatant was then transferred to a new tube and mixed with equal volume of 2×SDS sample buffer. Ten μL sample solution was for electrophoresis and immunoblotting. The signal of anti-GAPDH was used to adjust the amount of protein loading.
Since Bay 11-7082 inhibited PRMT1 activity in an in vitro assay, we then tested the inhibitory activity of this compound in cultured HeLa cells. The levels of ADMA are regulated by both methylation and demethylation. […] Some proteins of ADMA persisted several days in the absence of PRMT1. […] We also used histone H4R3 asymmetric dimethylation antibody as one kind of pan ADMA antibody (right panel, Supplementary FIG. 5). However, we noticed that the ADMA signals of one or two proteins increased in this experiment possibly due to the compensation activity caused by other PRMT family proteins (39) or disturbance of cell cycle progression affected by other target proteins of Bay 11-7082 (40). It is of interest to note that phenylsulfonyl structure present in Bay 11-7082 is also found in a PRMT1 inhibitor, C-7280948 (41), indicating the Bay 11-7082 could be a good lead compound for developing PRMT1 inhibitors. […] We included another Bay 11-7082 analog, Bay 11-7085 for comparison (42, 43).

[2] = molecular target: T1, Recombinant glutathione reductase (Homo sapiens, UniProt P00390); assay: In vitro enzyme activity of glutathione reductase; assay type: biochemical
T1 construct: purchased BioVision
T1 sequence (P00390 44-522): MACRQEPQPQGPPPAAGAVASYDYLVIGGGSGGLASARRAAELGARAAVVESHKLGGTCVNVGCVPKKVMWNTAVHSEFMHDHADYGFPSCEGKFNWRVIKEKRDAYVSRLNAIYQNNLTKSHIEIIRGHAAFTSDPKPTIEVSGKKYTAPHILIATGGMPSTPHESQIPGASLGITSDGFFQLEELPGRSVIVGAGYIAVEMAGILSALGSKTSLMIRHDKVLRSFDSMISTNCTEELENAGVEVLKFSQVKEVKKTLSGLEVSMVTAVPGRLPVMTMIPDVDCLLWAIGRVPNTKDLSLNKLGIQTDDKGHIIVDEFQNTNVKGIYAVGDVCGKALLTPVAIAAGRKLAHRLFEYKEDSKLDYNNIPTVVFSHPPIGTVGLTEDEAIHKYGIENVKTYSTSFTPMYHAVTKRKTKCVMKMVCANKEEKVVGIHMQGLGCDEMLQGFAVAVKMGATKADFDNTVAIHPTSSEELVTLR
Experimental: Recombinant glutathione reductase was first treated with NADPH and 10 or 50 μM PVS, PVSN or Bay 11-7082 for 1 h at room temperature. In the control group, recombinant glutathione reductase was treated with NADPH and the same volume of DMSO used in the treatment of drugs in the assay buffer. Following the addition of oxidized glutathione, the decrease in absorbance at A340 was monitored over 10 min. Results were presented as mean of three independent experiments plus and minus standard deviation.
The assay was carried out according to the protocol provided by BioVision Inc. (Catalog number K761-200). Recombinant glutathione reductase was first treated with NADPH and 10 μM or 50 μM PVS, PVSN or Bay11-7082 for 30 min at room temperature. In the control group, recombinant glutathione reductase was treated with NADPH and the same volume of DMSO used in the treatment of drugs in the assay buffer. Following the addition of oxidized glutathione, the decrease in absorbance at A340 was monitored over 10 min.
Based on the proteomic results, we first examined whether PVS, PVSN and Bay 11-7082 affected the activity of glutathione reductase (FIG. 5). All compounds were ineffective in inhibiting glutathione reductase at 10 μM. However, PVSN and Bay 11-7082 at 50 μM inhibited the activity of glutathione reductase by 61% and 74%, respectively. […]

[3] = test system: PTPs in HeLa cells; assay: Phosphotyrosine levels in HeLa cells (PTP inhibition, immunoblot); assay type: cell-based; conditions: 10 and 100 μM for 5 min
Experimental: FIG. 4 describes use of anti-PVS in recognition of PVSN and Bay 11-7082 adducts.
We next examined whether anti-PVS antiserum can be used in detection of target proteins probed by PVS analogs such as PVSN and Bay 11-7082. Treatment of PVSN and Bay 11-7082 at concentrations of 10 and 100 μM for 5 min increased the levels of phosphotyrosine modification in HeLa cells, especially Bay 11-7082 at 100 μM (FIG. 4) confirming their effects in PTP inhibition. PVSN-tagged proteins were abundantly recognized by anti-PVS antiserum (FIG. 5A), but only few Bay 11-7082-tagged proteins were detected by the anti-PVS antiserum (FIG. 5B). Therefore, anti-PVS antiserum can be readily used in the detection of proteins modified by PVS and PVSN.

[4] = molecular target: T2, recombinant PRMT1 (Homo sapiens, UniProt Q99873); assay: In vitro PRMT1 activity assay (histone H4 methylation, immunoblot); assay type: biochemical; conditions: for concentration that caused significant inhibition of methylation of histone H4: recombinant PRMT1, histone H4, S-adenosylmethionine; for IC50: three-point curve fit (5, 10, 100 μM), an estimation, read-out: IC50 (PRMT1, histone H4 as substrate)
T2 construct: purchased BPS Bioscience
T2 sequence (Q99873 whole entry): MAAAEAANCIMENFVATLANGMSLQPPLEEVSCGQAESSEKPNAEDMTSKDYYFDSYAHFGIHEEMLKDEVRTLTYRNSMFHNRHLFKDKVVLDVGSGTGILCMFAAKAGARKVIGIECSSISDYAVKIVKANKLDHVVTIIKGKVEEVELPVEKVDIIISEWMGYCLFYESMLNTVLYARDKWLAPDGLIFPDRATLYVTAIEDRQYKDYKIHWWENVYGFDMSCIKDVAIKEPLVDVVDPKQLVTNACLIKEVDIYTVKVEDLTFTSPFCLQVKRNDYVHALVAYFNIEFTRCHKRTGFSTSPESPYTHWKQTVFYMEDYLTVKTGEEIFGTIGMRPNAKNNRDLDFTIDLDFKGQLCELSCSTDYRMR
Source text: Three-point IC50 curves may provide an estimation, but certainly not an accurate calculation (data is not shown).

[5] = test system: PVS tagging of cysteine thiol groups of cellular proteins in HeLa cells; assay: Competition of PVS tagging in HeLa cells or lysate (anti-PVS immunoblot); assay type: cell-based
Experimental: HeLa cells were treated with 10 μM to 1 mM PVS in PBS for 1 h or with 0.1-2 mM PVD in PBS for 30 min. In the case of PVS and PVD combined treatment, HeLa cells were pretreated with PVD for 30 min and then treated with PVS in PBS for 1 h.
Based on the observations that PVS and PVSN were PTP covalent inhibitors (22), we attempted to develop an antiserum against PVS and use the antiserum in the identification of PVS-tagged proteins through immunoblotting and immunoprecipitation. First, we confirmed the inhibitory activity of PVS on PTPs and tested the efficacy of our antiserum against PVS. […] Higher concentrations of PVS elicited higher levels of PVS modification, but with the same pattern. […] Specificity of the anti-PVS was further tested by the combined treatment of ethyl vinyl sulfone (EVS) and PVS. HeLa cells were pretreated with 10 μM to 1 mM EVS in PBS for 30 min and then treated with 100 μM PVS in PBS for 1 h.
Pervanadate is an irreversible PTP inhibitor by oxidizing the active-site cysteine thiol of PTPs (24). If both PVS and pervanadate target the same thiol group, pretreatment of pervanadate would hinder the tagging of PVS. […] Next, we tested the competition of BVT 948 and NSC 95397 on the tagging of PVS. BVT 948 (25) and NSC 95397 (26) are PTP and dual specificity phosphatase inhibitors, respectively. Treatment of both drugs elicited increased amounts of tyrosine phosphorylation, albeit with different sensitivity and pattern.
HeLa cells were cultured to about 90% confluence on a 10-cm dish in DMEM with 10% FBS (5×10^6~1×10^7 cells). HeLa cells were lysed by repeated pipetting with 900 μL 2% Triton X-100 in 20 mM Tris-HCl, pH 8.0. The lysate was centrifuged at 12,000×g for 10 min and the supernatant was aliquoted (200 μL) and treated with PVS, PVSN, or Bay 11-7082 of various concentrations at room temperature for 5 to 60 min. The stocks of 1000×PVS, 1000×PVSN, and 1000× Bay 11-7082 were prepared in DMSO. The reaction was stopped by adding 1,4-dithioerythreitol to a final concentration of 10 mM. The reaction solution was then mixed with equal volume of 2× SDS sample buffer. Ten μL sample solution was used for SDS gel electrophoresis and immunoblotting. The signal of GAPDH was used to adjust the amount of protein loading.

[6] = test system: PC-9 cells; assay: Afatinib labeling of proteins in PC-9 cells (anti-afatinib immunoblot); conditions: 1 h
Experimental: The control groups were treated with the same volume of DMSO.

[7] = test system: recombinant RRM1 or RRM2; assay: Competition of afatinib labeling of recombinant RNR subunits; conditions: pretreatment 2.5 mM, then 10 μM afatinib

Compound: O=C(Nc1ccc2c(O)cc(S(=O)(=O)O)cc2c1)Nc1ccc2c(O)cc(S(=O)(=O)O)cc2c1 [AMI-1]
- levels of protein ADMA in cell culture [1]: little effect

Compound: Cc1ccc(S(=O)(=O)/C=C/C#N)cc1 [Bay 11-7082]
- inhibited the activity of glutathione reductase by ([2]; at 50 μM): 74%
- levels in ADMA of 25 and 35 kDa ([1]; 3 h): led to decline
- levels of phosphotyrosine modification [3]: increased
- concentration that caused significant inhibition of methylation of histone H4 [4]: 2.5 µM
- IC50 [4]: 10.7 µM

Compound: C=CS(=O)(=O)CC [EVS, ethyl vinyl sulfone]
- PVS modification ([5]; HeLa cells pretreated at 100 μM and 1 mM for 30 min, then 100 μM PVS 1 h): significantly attenuated

Compound: O=C1C(SCCO)=C(SCCO)C(=O)c2ccccc21 [NSC 95397]
- blocking of PVS tagging, comparison ([5]; in vitro and in cellulo): blocked PVS tagging better than BVT 948

Compound: C=CS(=O)(=O)c1ccccc1 [PVS, Phenyl vinyl sulfone]
- levels of protein ADMA in cell culture [1]: did not change
- concentration that caused significant inhibition of methylation of histone H4 [4]: 10 µM
- IC50 [4]: 23.3 µM

Compound: C=CS(=O)(=O)Oc1ccccc1 [PVSN, phenyl vinyl sulfonate]
- inhibition at 50 µM ([2]; read-out: inhibited the activity of glutathione reductase by): 61%
- levels of protein ADMA in cell culture [1]: decreased the levels of protein ADMA slightly
- levels of phosphotyrosine modification [3]: increased
- concentration that caused significant inhibition of methylation of histone H4 [4]: 5 µM
- IC50 [4]: 10.4 µM

Compound: CN(C)C/C=C/C(=O)Nc1cc2c(Nc3ccc(F)c(Cl)c3)ncnc2cc1O[C@H]1CCOC1 [afatinib]
- concentration at which labeling signals were readily observed [6]: 1 µM

Compound: Nc1ccn([C@@H]2O[C@H](CO)[C@@H](O)C2(F)F)c(=O)n1 [gemcitabine]
- afatinib labeling [7]: almost completely blocked

Compound: pervanadate
- tagging of PVS ([5]; HeLa cell lysate, 1 mM together with 100 μM PVS): almost completely blocked
- tagging of PVS ([5]; HeLa cells pretreated with 1 mM for 30 min): completely blocked
